Tests used:
Solubility in water = type: physicochemical
[1] = Viscosity of aqueous solution; type: physicochemical
Ratte = assay: General (acute) toxicity, LD50 after intravenous administration; type: in vivo; conditions: rat, intravenous administration (b7)
Protocol: (§1) Die Produkte der Erfindung der allgemeinen Formel I sind durch eine gute Löslichkeit in Wasser bei 20°C, eine Osmolalität in wässriger Lösung, die kleiner als die Osmolalität des Blutes (280 mOs/kg) ist, sowie durch eine niedrige allgemeine Toxizität gekennzeichnet, die als […] (LD₅₀) in Ratte bei intravenöser Gabe ausgedrückt wird.

[2] = Osmolality of aqueous solution; type: physicochemical
Protocol: as §1

SMILES	Löslichkeit in Wasser bei 20°C und 300 mg I/ml (Solubility in water)	Viskosität bei 37°C und 300 mg I/ml [1]	LD₅₀ Ratte (Ratte)	Osmolatität bei 37°C und 300 mg I/ml [2]
CN(C(=O)C(O)C(=O)N(C)c1c(I)c(C(N)=O)c(I)c(C(=O)NCC(O)CO)c1I)c1c(I)c(C(N)=O)c(I)c(C(=O)NCC(O)CO)c1I (stereo not drawn) [Beispiel 5, N,N'-Dimethyl-N,N'-bis-{5-carbamoyl-3-[N-(2,3-dihydroxypropyl)carbamoyl]-2,4,6-triiodphenyl}hydroxymalonamid]	<60%			
NC(=O)c1c(I)c(C(=O)NCC(O)CO)c(I)c(N(CC(O)CO)C(=O)C(O)C(=O)N(CC(O)CO)c2c(I)c(C(N)=O)c(I)c(C(=O)NCC(O)CO)c2I)c1I (stereo not drawn) [Beispiel 12, N,N'-Bis-(2,3-dihydroxypropyl)-N,N'-bis-{5-carbamoyl-3-[N-(2,3-dihydroxypropyl)carbamoyl]-2,4,6-triiodphenyl}-hydroxymalonamid]	>60%	6,5 mPa·s	>15 g I/kg	240 mOs/kg
CN(C(=O)C(=O)C(=O)N(C)c1c(I)c(C(N)=O)c(I)c(C(=O)NCC(O)CO)c1I)c1c(I)c(C(N)=O)c(I)c(C(=O)NCC(O)CO)c1I (stereo not drawn) [Beispiel 14, N,N'-Dimethyl-N,N'-bis-{5-carbamoyl-3-[N-(2,3-dihydroxypropyl)carbamoyl]-2,4,6-triiodphenyl}cetomalonamid]	<60%			
O=C(NCCO)c1c(I)c(C(=O)NCC(O)CO)c(I)c(N(CC(O)CO)C(=O)CC(=O)N(CC(O)CO)c2c(I)c(C(=O)NCCO)c(I)c(C(=O)NCC(O)CO)c2I)c1I (stereo not drawn) [Beispiel 4, N,N'-Bis-(2,3-hydroxypropyl)-N,N'-bis-{3-[N-(2,3-dihydroxypropyl)carbamoyl]-5-[N-(2-hydroxyethyl)carbamoyl]-2,4,6-triiodphenyl}malonamid]	>60%	6,8 mPa·s	>15 g I/kg	190 mOs/kg
NC(=O)c1c(I)c(C(=O)NC(CO)C(O)CO)c(I)c(N(CCO)C(=O)C(O)C(=O)N(CCO)c2c(I)c(C(N)=O)c(I)c(C(=O)NC(CO)C(O)CO)c2I)c1I (stereo not drawn) [Beispiel 9, N,N'-Bis-(2-hydroxyethyl)-N,N'-bis-{5-carbamoyl-3-[N-(1-hydroxymethyl-2,3-dihydroxy-propyl)carbamoyl]-2,4,-6-triiodphenyl}hydroxymalonamid]	<60%			
CN(C(=O)C(O)C(=O)N(C)c1c(I)c(C(=O)NCC(O)CO)c(I)c(C(=O)NCC(O)CO)c1I)c1c(I)c(C(N)=O)c(I)c(C(=O)NCC(O)CO)c1I (stereo not drawn) [Beispiel 7, N,N'-Dimethyl-N-{5-carbamoyl-3-[N-(2,3-dihydroxypropyl)carbamoyl]-2,4,6-triiodphenyl}-N'-{3,5-bis-[N-(2,3-dihydroxypropyl)carbamoyl]-2,4,6-triiodphenyl}hydroxymalonamid]	>60%	8,1 mPa·s	>15 g I/kg	170 mOs/kg
CN(C(=O)C(=O)C(=O)N(C)c1c(I)c(C(=O)NCC(O)CO)c(I)c(C(=O)NCC(O)CO)c1I)c1c(I)c(C(=O)NCC(O)CO)c(I)c(C(=O)NCC(O)CO)c1I (stereo not drawn) [Beispiel 13, N,N'-Dimethyl-N,N'-bis-{3,5-bis[N-(2,3-dihydroxypropyl)carbamoyl]-2,4,6-triiodphenyl}cetomalonamid]	>60%	10,9 mPa·s	>15 g I/kg	160 mOs/kg
O=C(NCCO)c1c(I)c(C(=O)NCC(O)CO)c(I)c(N(CC(O)CO)C(=O)C(O)C(=O)N(CC(O)CO)c2c(I)c(C(=O)NCCO)c(I)c(C(=O)NCC(O)CO)c2I)c1I (stereo not drawn) [Beispiel 11, N,N'-Bis-(2,3-dihydroxypropyl)-N,N'-bis-{3-[N-(2,3-dihydroxypropyl)carbamoyl]-5-[N-(2-hydroxyethyl)carbamoyl]-2,4,6-triiodphenyl}hydroxymalonamid]	>60%	7,8 mPa·s	>15 g I/kg	210 mOs/kg
O=C(NCCO)c1c(I)c(C(=O)NCC(O)CO)c(I)c(N(CCO)C(=O)CC(=O)N(CCO)c2c(I)c(C(=O)NCCO)c(I)c(C(=O)NCC(O)CO)c2I)c1I (stereo not drawn) [Beispiel 3, N,N'-Bis-(2-hydroxyethyl)-N,N'-bis-{3-[N-(2,3-dihydroxypropyl)-carbamoyl]-5-[N-(2-hydroxyethyl)carbamoyl]-2,4,6-triiodphenyl}-malonamid]	>60%	7,5 mPa·s	>15 g I/kg	160 mOs/kg
CNC(=O)c1c(I)c(C(=O)NCC(O)CO)c(I)c(N(CCO)C(=O)C(O)C(=O)N(CCO)c2c(I)c(C(=O)NC)c(I)c(C(=O)NCC(O)CO)c2I)c1I (stereo not drawn) [Beispiel 1, N,N-Bis-(2-hydroxyethyl)-N,N'-bis-(3-[N-(2,3-dihydroxypropyl)carbamoyl]-5-(N-methylcarbamoyl)-2,4,6-triiodphenyl}hydroxymalonamid]	<60%			
NC(=O)c1c(I)c(C(=O)NCC(O)CO)c(I)c(N(CCO)C(=O)C(O)C(=O)N(CCO)c2c(I)c(C(N)=O)c(I)c(C(=O)NCC(O)CO)c2I)c1I (stereo not drawn) [Beispiel 8, N,N'-Bis-(2-hydroxyethyl)-N,N'-bis-{5-carbamoyl-3-[N-(2,3-dihydroxypropyl)carbamoyl]-2,4,6-triiodphenyl}-hydroxymalonamid]	<60%			
CC(=O)N(CC(O)CN(C(C)=O)c1c(I)c(C(=O)NCC(O)CO)c(I)c(C(=O)NCC(O)CO)c1I)c1c(I)c(C(=O)NCC(O)CO)c(I)c(C(=O)NCC(O)CO)c1I (stereo not drawn) [IODIXANOL, Iodixanol, reference compound]	>60%	8,7 mPa·s	>15 g I/kg	200 mOs/kg
CN(C(=O)C(O)C(=O)N(C)c1c(I)c(C(N)=O)c(I)c(C(=O)NC(CO)C(O)CO)c1I)c1c(I)c(C(N)=O)c(I)c(C(=O)NC(CO)C(O)CO)c1I (stereo not drawn) [Beispiel 6, N,N'-Dimethyl-N,N'-bis-{5-carbamoyl-3-[N-(1-hydroxymethyl-2,3-dihydroxypropyl)carbamoyl]-2,4,6-triiodphenyl}-hydroxymalonamid]	<60%			
CNC(=O)c1c(I)c(C(=O)NCC(O)CO)c(I)c(N(CC(O)CO)C(=O)C(O)C(=O)N(CC(O)CO)c2c(I)c(C(=O)NC)c(I)c(C(=O)NCC(O)CO)c2I)c1I (stereo not drawn) [Beispiel 2, N,N'-Bis-(2,3-dihydroxypropyl)-N,N'-bis-{3-[N-(2,3-dihydroxypropyl)carbamoyl]-5-(N-methylcarbamoyl)-2,4,6-triiodphenyl}-hydroxymalonamid]	<60%			
O=C(NCCO)c1c(I)c(C(=O)NCC(O)CO)c(I)c(N(CCO)C(=O)C(O)C(=O)N(CCO)c2c(I)c(C(=O)NCCO)c(I)c(C(=O)NCC(O)CO)c2I)c1I (stereo not drawn) [Beispiel 10, N,N'-Bis-(2-hydroxyethyl)-N,N'-bis-{3-[N-(2,3-dihydroxypropyl)carbamoyl]-5-[N-(2-hydroxyethyl)carbamoyl]-2,4,6-triiodphenyl}hydroxymalonamid]	>60%	7,3 mPa·s	>15 g I/kg	170 mOs/kg
